pIC50, pKi: −log10 of the molar value. Activity calls are given as the source filed them. No cut-off for these calls is given here.
How the values were obtained:
[1] = target: Carbonic anhydrase 1 (Homo sapiens, UniProt P00915); assay: Inhibition of recombinant human CA1 pre-incubated for 15 mins prior to testing by phenol red-based stopped-flow CO2 hydration assay
[2] = target: Carbonic anhydrase 9 (Homo sapiens, UniProt Q16790); assay: Inhibition of recombinant human CA9 pre-incubated for 15 mins prior to testing by phenol red-based stopped-flow CO2 hydration assay
[3] = target: Carbonic anhydrase 12 (Homo sapiens, UniProt O43570); assay: Inhibition of recombinant human CA12 pre-incubated for 15 mins prior to testing by phenol red-based stopped-flow CO2 hydration assay
[4] = system: MDA-MB-231; assay: Antiproliferative activity against human MDA-MB-231 cells assessed as reduction in cell viability at 100 uM after 72 hrs under normoxic condition by MTT assay; assay type: functional
[5] = system: MDA-MB-231; assay: Antiproliferative activity against human MDA-MB-231 cells assessed as reduction in cell viability at 100 uM after 72 hrs under hypoxic condition by MTT assay; assay type: functional
[6] = system: MCF7; assay: Antiproliferative activity against human MCF-7 cells assessed as cell survival at 100 uM after 72 hrs under normoxic condition by MTT assay; assay type: functional; details: for viability at 100 µM: read-out: Activity
[7] = system: MCF7; assay: Antiproliferative activity against human MCF7 cells assessed as cell survival at 100 uM after 72 hrs under hypoxic condition by MTT assay; assay type: functional; details: for viability at 100 µM: read-out: Activity
[8] = system: MDA-MB-231; assay: Antiproliferative activity against human MDA-MB-231 cells assessed as reduction in cell viability after 72 hrs under normoxic condition by MTT assay; details: MDA-MB-231, 72 h
[9] = system: MDA-MB-231; assay: Antiproliferative activity against human MDA-MB-231 cells assessed as reduction in cell viability after 72 hrs under hypoxic condition by MTT assay; details: MDA-MB-231, 72 h
[10] = system: MCF7; assay: Antiproliferative activity against human MCF7 cells assessed as reduction in cell viability after 72 hrs under hypoxic condition by MTT assay; details: MCF7, 72 h
[11] = system: MCF7; assay: Antiproliferative activity against human MCF7 cells assessed as reduction in cell viability after 72 hrs under normoxic condition by MTT assay; details: MCF7, 72 h
[12] = Antiproliferative activity against human WI26VA4 cells assessed as reduction in cell viability after 72 hrs under normoxic condition by MTT assay; details: WI26VA4, 72 h
[13] = Antiproliferative activity against human WI26VA4 cells assessed as reduction in cell viability after 72 hrs under hypoxic condition by MTT assay; details: WI26VA4, 72 h

Chain of Carbonic anhydrase 12 (O43570 whole entry): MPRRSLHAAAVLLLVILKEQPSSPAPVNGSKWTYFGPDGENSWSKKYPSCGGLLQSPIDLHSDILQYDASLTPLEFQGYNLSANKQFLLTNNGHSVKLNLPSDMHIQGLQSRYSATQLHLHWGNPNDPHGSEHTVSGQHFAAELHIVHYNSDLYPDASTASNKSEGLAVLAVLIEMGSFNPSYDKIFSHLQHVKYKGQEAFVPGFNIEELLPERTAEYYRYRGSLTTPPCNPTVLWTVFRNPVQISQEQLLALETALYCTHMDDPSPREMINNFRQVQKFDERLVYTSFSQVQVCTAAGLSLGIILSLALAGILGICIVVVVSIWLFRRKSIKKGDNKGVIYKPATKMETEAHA
Chain of Carbonic anhydrase 1 (P00915 whole entry): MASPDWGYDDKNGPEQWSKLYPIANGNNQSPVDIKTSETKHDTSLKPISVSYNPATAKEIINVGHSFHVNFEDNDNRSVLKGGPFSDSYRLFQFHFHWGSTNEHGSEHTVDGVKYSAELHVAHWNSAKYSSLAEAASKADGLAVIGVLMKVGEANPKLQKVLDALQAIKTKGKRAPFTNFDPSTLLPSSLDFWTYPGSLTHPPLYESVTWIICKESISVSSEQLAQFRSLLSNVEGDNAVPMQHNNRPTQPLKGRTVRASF

SMILES	pKi [1]	pKi [2]	pKi [3]	Activity [4]	Activity [5]	Activity [6]	Activity [7]	pIC50 [8]	pIC50 [9]	pIC50 [10]	pIC50 [11]	viability at 100 µM [6] [%]	viability at 100 µM [7] [%]	pIC50 [12]	pIC50 [13]
COc1ccc(C(=O)CNc2cccc(S(N)(=O)=O)c2)cc1	6.04	7.27	6.72	inactive	inactive	inactive	inactive								
NS(=O)(=O)c1ccc(NC2CCN(c3ccccc3)C2=O)cc1 (configuration not stated)	7.21	8.02	7.60	inactive	inactive	inactive	inactive								
CCOC(=O)C(Nc1ccc(S(N)(=O)=O)cc1)c1ccc(OC)c(OC)c1 (configuration not stated)	5.23	8.19	7.45	inactive	inactive	inactive	inactive								
CCOC(=O)C(Nc1ccc(S(N)(=O)=O)cc1)C(=O)c1ccc(OC)cc1 (configuration not stated)	6.50	7.90	7.78	inactive	inactive	inactive	inactive								
COCCOC(=O)C(Nc1ccc(S(N)(=O)=O)cc1)C(=O)OCCOC	7.07	7.43	7.35	inactive	inactive	inactive	inactive								
Cc1ccc(C(=O)CNc2ccc(S(N)(=O)=O)cc2)cc1	7.27	7.82	7.17	inactive	inactive	inactive	inactive								
CC(C)C(C(=O)Nc1cccc(S(N)(=O)=O)c1)C(=O)c1ccccc1 (configuration not stated)	5.87	7.15	7.22	inactive	inactive	inactive	inactive								
Cc1ccc(N2C(=O)C(Cc3ccc(Cl)cc3)=C(Nc3cccc(S(N)(=O)=O)c3)C2=O)cc1	< 5.00	6.20	5.97					4.43	4.43	4.82	4.83	10	10	4.66	4.45
CCN(CC)C(=O)CNc1cccc(S(N)(=O)=O)c1	7.15	7.34	7.08	inactive	inactive	inactive	inactive								
CC(C)C(C(=O)Nc1ccc(S(N)(=O)=O)cc1)C(=O)c1ccccc1 (configuration not stated)	6.74	7.52	7.45	inactive	inactive	inactive	inactive								
CCOC(=O)C(Nc1ccc(S(N)(=O)=O)cc1)C(=O)c1ccccc1 (configuration not stated)	6.61	7.74	7.66	inactive	inactive	inactive	inactive								
NS(=O)(=O)c1ccc(NC2CCN(c3cccc(C(F)(F)F)c3)C2=O)cc1 (configuration not stated)	6.33	7.71	7.86	inactive	inactive	inactive	inactive								
CC(C)(C)C(=O)CNc1cccc(S(N)(=O)=O)c1	6.46	7.38	7.62	inactive	inactive	inactive	inactive								
NS(=O)(=O)c1ccc(NCC(=O)N2CCN(Cc3ccc(Cl)cc3)CC2)cc1	6.83	7.67	7.95	inactive	inactive	inactive	inactive								
COc1ccccc1CC1=C(Nc2ccc(S(N)(=O)=O)cc2)C(=O)N(c2ccccc2)C1=O	< 5.00	7.17	7.06			Active	Active								
NS(=O)(=O)c1cccc(NCC(=O)N2CCN(Cc3ccc(Cl)cc3)CC2)c1	5.40	6.94	7.44	inactive	inactive	inactive	inactive								
NS(=O)(=O)c1ccc(NC2CCN(c3nccs3)C2=O)cc1 (configuration not stated)	6.86	7.43	7.73	inactive	inactive	inactive	inactive								

SMILES	pKi [1]	pKi [2]	pKi [3]	Activity [4]	Activity [5]	Activity [6]	Activity [7]	pIC50 [8]	pIC50 [9]	pIC50 [10]	pIC50 [11]	viability at 100 µM [6] [%]	viability at 100 µM [7] [%]	pIC50 [12]	pIC50 [13]
CCOC(=O)C(Nc1ccc(S(N)(=O)=O)cc1)C(=O)OCC	6.87	7.28	7.24	inactive	inactive	inactive	inactive								
COc1ccc(C(=O)CNc2ccc(S(N)(=O)=O)cc2)cc1	6.90	8.00	7.09	inactive	inactive	Active	Active								
CC(C(=O)Nc1ccc(S(N)(=O)=O)cc1)C(=O)c1ccc(Cl)cc1 (configuration not stated)	6.67	7.46	7.65	30%	30%	Active	Active								
CC(C)OC(=O)C(Nc1ccc(S(N)(=O)=O)cc1)C(=O)OC(C)C	6.98	7.55	7.21	inactive	inactive	inactive	inactive								
COC(=O)C(Nc1cccc(S(N)(=O)=O)c1)C(=O)c1ccc(OC)cc1 (configuration not stated)	5.59	7.04		inactive	inactive	inactive	inactive								
COC(=O)C(Nc1ccc(S(N)(=O)=O)cc1)C(=O)OC	6.78	7.24		inactive	inactive	inactive	inactive								
Cc1ccc(N2C(=O)C(Cc3ccc(Cl)cc3)=C(Nc3ccc(S(N)(=O)=O)cc3)C2=O)cc1	< 5.00	7.09	6.89					4.78	4.81	4.94	4.96	10	10	4.66	4.58
CCOC(=O)C(Nc1ccc(S(N)(=O)=O)cc1)c1ccc(Cl)cc1 (configuration not stated)	6.87	7.27	7.20	30%	30%	inactive	inactive								
CCOC(=O)C(C(=O)Nc1cccc(S(N)(=O)=O)c1)C(C)C (configuration not stated)	6.46	7.15	6.95	inactive	inactive	inactive	inactive								
CCN(CC)C(=O)CNc1ccc(S(N)(=O)=O)cc1	6.61	7.05	7.48	inactive	inactive	inactive	inactive								
COCC(=O)C(Nc1ccc(S(N)(=O)=O)cc1)C(=O)OC (configuration not stated)	7.16	7.19	7.61	inactive	inactive	inactive	inactive								
Cc1ccc(C(=O)CNc2cccc(S(N)(=O)=O)c2)cc1	6.53	7.19	6.68	inactive	inactive	inactive	inactive								
COC(=O)C(Nc1ccc(S(N)(=O)=O)cc1)C(=O)c1ccccc1OC (configuration not stated)	6.08	7.59	7.58												
CCOC(=O)C(C(=O)Nc1ccc(S(N)(=O)=O)cc1)c1ccccc1 (configuration not stated)	6.51	7.21	7.38	inactive	inactive	inactive	inactive								
NS(=O)(=O)c1ccc(NC2CCCCCC2=O)cc1 (configuration not stated)	6.69	8.19	7.31	30%	30%	inactive	inactive								
CCOC(=O)C(Nc1cccc(S(N)(=O)=O)c1)C(=O)c1ccccc1 (configuration not stated)	5.81	7.23	7.08	30%	30%	inactive	inactive								
CCOC(=O)C(C(=O)Nc1ccc(S(N)(=O)=O)cc1)C(C)C (configuration not stated)	7.24	7.49		inactive	inactive	inactive	inactive								

Reference: ChEMBL document CHEMBL4811239, “Insertion of metal carbenes into the anilinic N-H bond of unprotected aminobenzenesulfonamides delivers low nanomolar inhibitors of human carbonic anhydrase IX and XII isoforms” (Eur J Med Chem, 2021)
